{
  "source": "patent US11464756B1",
  "about": "“Mecuna pruriens, L-DOPA and 5-HTP based dietary supplements, pharmaceutical formulations and uses thereof” (priority 2017, dated 2022)",
  "key": {"[1]": {"conditions": "cited from earlier work"}, "serotonin levels": {"tested_on": "serotonin levels", "test": "Short term rise of serotonin levels after taking 5-HTP", "assay_type": "in vivo", "conditions": "short term result of taking 5-HTP", "description": "Recently 5-HTP has been introduced to the US market. […] Taking 5-HTP in any of several forms can raise serotonin levels in a natural way by “Filling the Well”. There appears to be both a short term and long term results from taking 5-HTP. Short term there seems to be a ‘burst’ lasting 4-5 hours when levels rise, and long term as the “reservoir” or “water table” rises, to extend the metaphor, we notice that it takes much less 5-HTP to achieve the same result."}},
  "data": [
    {"smiles": "N[C@@H](Cc1c[nH]c2ccc(O)cc12)C(=O)O", "note": "[Example 5-HTP, 5-Hydroxy-tryptophan]", "values": [
      {"measurement": "time in which it is decarboxylated in the bloodstream", "setting": "[1]", "value": "≤ 45", "unit": "min"},
      {"measurement": "duration of short term 'burst' when levels rise", "setting": "serotonin levels", "value": "4 to 5", "unit": "h"}
    ]}
  ]
}
